The values below come from ChEMBL document CHEMBL1145593, “Design, synthesis and evaluation of potent thymidylate synthase X inhibitors” (Bioorg Med Chem Lett, 2008).

Molecules are shown by their SMILES. Activity calls are given as the source filed them. The rule behind the calls is not given here.

The term IC50 denotes the point on the concentration scale where inhibition reaches its midpoint. Read a low IC50 as greater potency. Usually Ki stands for a measure of affinity in units of concentration, obtained from inhibition or displacement. Read a high Ki as a looser hold on the target.

The target of experiment [1] is T1, Probable flavin-dependent thymidylate synthase (Paramecium bursaria Chlorella virus 1, UniProt O41156).
T1 sequence (O41156 whole entry): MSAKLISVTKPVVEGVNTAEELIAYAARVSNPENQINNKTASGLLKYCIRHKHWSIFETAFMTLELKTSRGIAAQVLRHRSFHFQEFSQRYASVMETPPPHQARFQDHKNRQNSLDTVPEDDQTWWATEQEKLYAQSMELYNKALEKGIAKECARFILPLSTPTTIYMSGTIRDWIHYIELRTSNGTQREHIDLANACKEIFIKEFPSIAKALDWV
Description: Inhibition of PBCV1 Thymidylate synthase X.

Experiment [2] deals with T2, Probable flavin-dependent thymidylate synthase (Paramecium bursaria Chlorella virus 1) (UniProt O41156).
T2 sequence (whole entry): T1 sequence (O41156 whole entry)
Description: Inhibition of PBCV1 Thymidylate synthase X in presence of bovine serum albumin surfactant.

Experiment [3] addresses T2, Probable flavin-dependent thymidylate synthase (Paramecium bursaria Chlorella virus 1). The experiment is described as follows: Inhibition of PBCV1 Thymidylate synthase X in presence of triton X100 surfactant.
Experiment [4] has the same target. Description: Reversal of inhibition of PBCV1 Thy X at 20 uM in presence of dUMP.

In experiment [1], `CCOC(=O)[C@@H]1CSC(c2ccccc2)N1C(=O)c1cn(CCCNC(=O)C(F)(F)F)nn1` (stereo partly drawn) displayed an IC50 of 0.057 µM. This molecule displayed a Ki in experiment [1] of 0.057 µM. The outcome in experiment [2] and in experiment [3] was Active. In addition, the result in experiment [4] was inactive.

As for `CCOC(=O)[C@@H]1CSC(c2ccccc2)N1C(=O)c1cn(CCc2ccc(F)cc2)nn1` (stereo partly drawn), the Ki in experiment [1] worked out at 2 µM.

In experiment [1], `CCOC(=O)[C@@H]1CSC(c2ccccc2)N1C(=O)c1cn(CCc2ccsc2)nn1` (stereo partly drawn) yielded a Ki of 1 µM.

On to `CCOC(=O)[C@@H]1CSC(c2ccccc2)N1C(=O)c1cn(CCCCCCCO)nn1` (stereo partly drawn), for which the affinity in experiment [1], expressed as Ki, was 3.5 µM.

`CCCCCCC(=O)N(CC(=O)O)C[C@@H]1CSC(c2ccccc2)N1C(=O)c1ccccc1` (stereo partly drawn) registered an IC50 in experiment [1] of 0.13 µM. Also, the Ki in experiment [1] is 0.13 µM. In addition, the outcome in experiment [2], in experiment [3] and in experiment [4] was Active.
